Molecular target: T1, NTCP (Homo sapiens, UniProt Q14973)
T1 sequence (Q14973 1-349): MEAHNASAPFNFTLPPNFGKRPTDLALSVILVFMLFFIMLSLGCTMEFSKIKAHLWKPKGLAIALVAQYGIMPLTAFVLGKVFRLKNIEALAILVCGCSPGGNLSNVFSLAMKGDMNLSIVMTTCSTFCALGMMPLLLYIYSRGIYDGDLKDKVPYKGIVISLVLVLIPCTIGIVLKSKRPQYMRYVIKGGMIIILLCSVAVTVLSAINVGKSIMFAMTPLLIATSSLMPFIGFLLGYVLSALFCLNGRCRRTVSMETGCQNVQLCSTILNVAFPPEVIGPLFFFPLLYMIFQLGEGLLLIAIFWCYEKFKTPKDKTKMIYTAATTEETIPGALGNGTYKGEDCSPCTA
Assay: Cellular accumulation in CHO cells transiently transfected with NTCP
Assay type: cell-based
Conditions: 10 μM 8-FcA, 20 minutes

SMILES: Nc1ncnc2c1nc(SCCNC(=S)Nc1ccc(-c3c4ccc(=O)cc-4oc4cc(O)ccc34)c(C(=O)O)c1)n2[C@@H]1O[C@@H]2COP(=O)(O)O[C@H]2[C@H]1O [8-FcA, 8-(2-[Fluoresceinyl]aminoethylthio) adenosine-3', 5'-cyclic monophosphate]
- cellular accumulation by fluorescence microscopy, NTCP: negative
